Reference: patent publication US20240059703A1 (AMGEN INC., priority 2021, published 2024)
One block for each compound: values may come before it.

Target: KRAS G12C (Homo sapiens (Human), UniProt P01116, C118A/G12C)
Assay: 2 h coupled exchange assay
Type: biochemical
Details: Avg 2 h Coupled exchange IC50, 2 h compound pre-incubation
Experimental: The term “2 h coupled exchange assay” or “20 h coupled exchange assay” as used herein refers to the assay described in the Section entitled “BIOLOGICAL EVALUATION.”

[1] = SOS-mediated nucleotide exchange

KRAS G12C, sequence (P01116 other isoform, or with tags, fused parts or gaps G12C/C118A): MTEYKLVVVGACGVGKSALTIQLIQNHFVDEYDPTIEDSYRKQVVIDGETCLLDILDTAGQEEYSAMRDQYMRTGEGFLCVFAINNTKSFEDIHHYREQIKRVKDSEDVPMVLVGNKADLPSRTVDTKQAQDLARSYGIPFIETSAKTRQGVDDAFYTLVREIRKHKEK

IC50 [1]: 0.129 µM
SMILES: C=CC(=O)N1CC2(CCN(c3nc4c(c(-c5c(C)ccc6[nH]ncc56)c3C#N)[C@H]3CC[C@@H]4C3)C2)C1 (single isomer, unassigned) [Example 14-5]

IC50 [1]: 1.42 µM
SMILES: C=CC(=O)N1CC2(CCN(c3nc4c(c(-c5c(C)ccc6[nH]ncc56)c3C#N)[C@@H]3CC[C@H]4C3)C2)C1 (single isomer, unassigned) [Example 14-6]

IC50 [1]: 2.57 µM
SMILES: C=CC(=O)N1CC2(CCN(c3nc4c(c(-c5c(C)ccc6[nH]ncc56)c3C#N)[C@H]3CC[C@@H]4C3)C2)C1 (single isomer, unassigned) [Example 14-8]

IC50 [1]: 1.14 µM
SMILES: C=CC(=O)N1CC2(CCN(c3nc4c(c(-c5cc(O)ccc5C)c3C#N)[C@@H]3CC[C@H]4C3)C2)C1 (single isomer, unassigned) [Example 14-10]

IC50 [1]: 0.422 µM
SMILES: C=CC(=O)N1CC2(CCN(c3nc4c(c(-c5cc(O)ccc5C)c3C#N)[C@H]3CC[C@@H]4C3)C2)C1 (single isomer, unassigned) [Example 14-12]

IC50 [1]: 2.84 µM
SMILES: C=CC(=O)N1CC2(CCN(c3nc4c(c(-c5cc(O)ccc5C)c3C#N)[C@H]3CC[C@@H]4C3)C2)C1 (single isomer, unassigned) [Example 14-13]

IC50 [1]: 0.108 µM
SMILES: C=CC(=O)N1CC2(CCN(c3nc4c(c(-c5cc(O)ccc5C)c3C#N)[C@H]3CC[C@@H]4C3)C2)C1 (single isomer, unassigned) [Example 14-14]

IC50 [1]: 250 µM
SMILES: C=CC(=O)N1CC2(CCN(c3nc4c(c(-c5c(C)ccc6cnn(C)c56)c3C#N)[C@@H]3CC[C@H]4C3)C2)C1 (single isomer, unassigned) [Example 14-16]

IC50: 0.886 µM
SMILES: C=CC(=O)N1CC2(CCN(c3nc4c(c(-c5cccc6cn[nH]c56)c3C#N)C[C@H]3C[C@@H]4C3(C)C)C2)C1 (single isomer, unassigned) [Example 14-28]

IC50: 3.04 µM
SMILES: C=CC(=O)N1CC2(CCN(c3nc4c(c(-c5cc(O)ccc5C)c3C)COC(C)(C)C4)C2)C1 (single isomer, unassigned) [Example 14-32, (P)-1-(6-(4-(5-hydroxy-2-methylphenyl)-3,7,7-trimethyl-7,8-dihydro-5H-pyrano[4,3-b]pyridin-2-yl)-2,6-diazaspiro[3.4]octan-2-yl)-2-propen-1-one]

Continued, compound first:

SMILES: C=CC(=O)N1CC2(CCN(c3nc4c(c(-c5c(C)ccc6cnn(C)c56)c3C#N)COC4(C)C)C2)C1 (single isomer, unassigned) [Example 13-57, (M)-4-(1,6-dimethyl-1H-indazol-7-yl)-7,7-dimethyl-2-(2-(2-propenoyl)-2,6-diazaspiro[3.4]octan-6-yl)-5,7-dihydrofuro[3,4-b]pridine-3-carbonitrile]
IC50 [1]: 0.361 µM

SMILES: C=CC(=O)N1CC2(CCN(c3nc4c(c(-c5c(C)ccc6cnn(C)c56)c3C#N)COC(C)(C)C4)C2)C1 (single isomer, unassigned) [Example 13-59, (M)-4-(1,6-dimethyl-1H-indazol-7-yl)-7,7-dimethyl-2-(2-(2-propenoyl)-2,6-diazaspiro[3.4]octan-6-yl)-7,8-dihydro-5H-pyrano[4,3-b]pyridine-3-carbonitrile]
IC50 [1]: 32.2 µM

SMILES: C=CC(=O)N1CC2(CCN(c3nc4c(c(-c5c(O)cccc5Cl)c3C#N)C[C@H]3C[C@@H]4C3)C2)C1 (single isomer, unassigned) [Example 13-66]
IC50 [1]: 76 µM

SMILES: C=CC(=O)N1CC2(CCN(c3nc4c(c(-c5c(O)cccc5Cl)c3C#N)C[C@H]3C[C@@H]4C3)C2)C1 (single isomer, unassigned) [Example 13-67]
IC50 [1]: 0.506 µM

SMILES: C=CC(=O)N1CC2(CCN(c3nc4c(c(-c5cc(O)cc6ccccc56)c3C#N)CC(C)(C)C4)C2)C1 (single isomer, unassigned) [Example 13-68, (M)-4-(3-hydroxy-1 naphthalenyl)-6,6-dimethyl-2-(2-(2-propenoyl)-2,6-diazaspiro[3.4]octan-6-yl)-6,7-dihydro-5H-cyclopenta[b]pyridine-3-carbonitrile]
IC50 [1]: 27 µM

SMILES: C=CC(=O)N1CC2(CCN(c3nc4c(c(-c5cc(O)c(F)c6ccccc56)c3C#N)CC[C@H]3C[C@@H]43)C2)C1 (single isomer, unassigned) [Example 13-73]
IC50 [1]: 19.3 µM

SMILES: C=CC(=O)N1CC2(CCN(c3nc4c(c(-c5cc(O)c(F)c6ccccc56)c3C#N)CC[C@H]3C[C@@H]43)C2)C1 (single isomer, unassigned) [Example 13-75]
IC50 [1]: 17 µM

SMILES: C=CC(=O)N1CC2(CCN(c3nc4c(c(-c5cc(O)c(F)c6ccccc56)c3C#N)COC(C)(C)C4)C2)C1 (single isomer, unassigned) [Example 13-77, (M)-4-(4-fluoro-3-hydroxy-1-naphthalenyl)-7,7-dimethyl-2-(2-(2-propenoyl)-2,6-diazaspiro[3.4]octan-6-yl)-7,8-dihydro-5H-pyrano[4,3-b]pyridine-3-carbonitrile]
IC50 [1]: 35.6 µM

SMILES: CN(C)C/C=C/C(=O)N1CC2(CCN(c3nc4c(c(-c5cc(O)cc6ccccc56)c3C#N)CC[C@H]3C[C@@H]43)C2)C1 (single isomer, unassigned) [Example 13-88]
IC50 [1]: 0.143 µM

SMILES: C=CC(=O)N1CC2(CCN(c3nc4c(c(-c5c(C)c(C)cc6cnn(C)c56)c3C#N)COC(C)(C)C4)C2)C1 (single isomer, unassigned) [Example 13-91, (M)-7,7-dimethyl-2-(2-(2-propenoyl)-2,6-diazaspiro[3.4]octan-6-yl)-4-(1,5,6-trimethyl-1H-indazol-7-yl)-7,8-dihydro-5H-pyrano[4,3-b]pyridine-3-carbonitrile]
IC50 [1]: 9.27 µM

SMILES: C=CC(=O)N1CC2(CCN(c3nc4c(c(-c5c(C)ccc6cnn(C)c56)c3C#N)CCC4(C)C)C2)C1 (single isomer, unassigned) [Example 13-102, (P)-2-(2-acryloyl-2,6-diazaspiro[3.4]octan-6-yl)-4-(1,6-dimethyl-1H-indazol-7-yl)-7,7-dimethyl-6,7-dihydro-5H-cyclopenta[b]pyridine-3-carbonitrile]
IC50 [1]: 140 µM

SMILES: C=CC(=O)N1CC2(CCN(c3nc4c(c(-c5c(C)ccc6cnn(C)c56)c3C#N)CCC4(C)C)C2)C1 (single isomer, unassigned) [Example 13-103, (M)-2-(2-acryloyl-2,6-diazaspiro[3.4]octan-6-yl)-4-(1,6-dimethyl-1H-indazol-7-yl)-7,7-dimethyl-6,7-dihydro-5H-cyclopenta[b]pyridine-3-carbonitrile]
IC50 [1]: 0.283 µM

SMILES: C=CC(=O)N1CC2(CCN(c3nc4c(c(-c5c(C)ccc6cnn(C)c56)c3C#N)C[C@H]3C[C@@H]4C3(C)C)C2)C1 (single isomer, unassigned) [Example 13-105]
IC50 [1]: 14.7 µM

SMILES: C=CC(=O)N1CC2(CCN(c3nc4c(c(-c5c(C)ccc6[nH]ncc56)c3C#N)C[C@H]3C[C@@H]4C3(C)C)C2)C1 (single isomer, unassigned) [Example 13-114]
IC50 [1]: 1.38 µM

SMILES: C=CC(=O)N1CC2(CCN(c3nc4c(c(-c5c(C)ccc6cnn(C)c56)c3C#N)C[C@H]3C[C@@H]4C3)C2)C1 (single isomer, unassigned) [Example 13-117]
IC50 [1]: 15.8 µM

SMILES: C=CC(=O)N1CC2(CCN(c3nc4c(c(-c5c(C)ccc6cnn(C)c56)c3C#N)CO[C@@H](C3CC3)C4)C2)C1 (single isomer, unassigned) [Example 13-119]
IC50 [1]: 6.7 µM

SMILES: C=CC(=O)N1CC2(CCN(c3nc4c(c(-c5c(C)ccc6cnn(C)c56)c3C#N)CO[C@H](C3CC3)C4)C2)C1 (single isomer, unassigned) [Example 13-120]
IC50 [1]: 9.19 µM

SMILES: C=CC(=O)N1CC2(CCN(c3nc4c(c(-c5c(C)ccc6cnn(C)c56)c3C#N)CO[C@H](C3CC3)C4)C2)C1 (single isomer, unassigned) [Example 13-121]
IC50 [1]: 0.849 µM

SMILES: C=CC(=O)N1CC2(CCN(c3nc4c(c(-c5cnccc5C)c3C#N)C[C@H]3C[C@@H]4C3(C)C)C2)C1 (single isomer, unassigned) [Example 13-123]
IC50 [1]: 0.856 µM

SMILES: C=CC(=O)N1CC2(CCN(c3nc4c(c(-c5cnccc5C)c3C#N)C[C@H]3C[C@@H]4C3(C)C)C2)C1 (single isomer, unassigned) [Example 13-124]
IC50 [1]: 45.5 µM

SMILES: C=CC(=O)N1CC2(CCN(c3nc4c(c(-c5cc(O)ccc5C)c3C#N)C[C@H]3C[C@@H]4C3)C2)C1 (single isomer, unassigned) [Example 13-125]
IC50 [1]: 12.6 µM

SMILES: C=CC(=O)N1CC2(CCN(c3nc4c(c(-c5cc(O)ccc5C)c3C#N)COC(C)(C)C4)C2)C1 (single isomer, unassigned) [Example 13-127, 4-(5-hydroxy-2-methylphenyl)-7,7-dimethyl-2-(2-(2-propenoyl)-2,6-diazaspiro[3.4]octan-6-yl)-7,8-dihydro-5H-pyrano[4,3-b]pyridine-3-carbonitrile]
IC50 [1]: 153 µM

SMILES: C=CC(=O)N1CC2(CCN(c3nc4c(c(-c5cc(O)cc6ccccc56)c3C#N)C[C@H]3C[C@@H]4C3(C)C)C2)C1 (single isomer, unassigned) [Example 13-130]
IC50 [1]: 13.1 µM

SMILES: C=CC(=O)N1CC2(CCN(c3nc4c(c(-c5c(C)ccc6cnn(C)c56)c3C#N)[C@H]3C[C@@H](C4)C3)C2)C1 (single isomer, unassigned) [Example 13-132]
IC50 [1]: 24.4 µM

SMILES: C=CC(=O)N1CC2(CCN(c3nc4c(c(-c5c(C)ccc6cnn(C)c56)c3C#N)CC[C@@H]3C[C@H]43)C2)C1 (single isomer, unassigned) [Example 13-134, (6a,7a)-4-(1,6-dimethyl-1H-indazol-7-yl)-2-(2-(2-propenoyl)-2,6-diazaspiro[3.4]octan-6-yl)-6,6a,7,7a-tetrahydro-5H-cyclopropa[h]quinoline-3-carbonitrile]
IC50 [1]: 39.3 µM

SMILES: C=CC(=O)N1CC2(CCN(c3nc4c(c(-c5c(C)ccc6cnn(C)c56)c3C#N)CC[C@H]3C[C@@H]43)C2)C1 (single isomer, unassigned) [Example 13-135, (6a,7a)-4-(1,6-dimethyl-1H-indazol-7-yl)-2-(2-(2-propenoyl)-2,6-diazaspiro[3.4]octan-6-yl)-6,6a,7,7a-tetrahydro-5H-cyclopropa[h]quinoline-3-carbonitrile]
IC50 [1]: 62.5 µM
